Drawing on patent US6130229A, “Tricyclic compounds having activity as RAS-FPT inhibitors” (Schering Corporation, priority 1997, dated 2000), this text covers IC50 for 13 molecules.

The target in this test is farnesyl protein transferase. Briefly: Inhibition of farnesyl protein transferase (test of WO 95/10514). It counts as biochemical. The following applies: percent inhibition relative to DMSO vehicle control, IC50 estimated. From the text:
The compounds of the invention can be tested by standard methods, for example by those published in published PCT application WO 95/10514 published Apr. 20, 1995 (starting at page 61), the disclosure of which is hereby incorporated herein by reference. Particularly relevant assays and studies include In vitro enzyme assays, Cell-Based Assays, Cell Mat Assays, and In Vivo Anti-Tumor Studies.
Such Assays and Studies indicate that compounds of the Formula I above are selective inhibitors of Ras-FPT and can be used as anti-tumor agents. The following Table presents IC50 values obtained in the test for Inhibition of farnesyl protein transferase, reported in published PCT application WO 95/10514. Percent inhibition was calculated relative to the DMSO vehicle control, and an IC50 value was estimated.
Consider `CSC(=NC#N)N1CCN(C2c3ccc(Cl)cc3SCc3cccnc32)CC1` (stereo not shown) [Example 18, Methyl 4-(8-chloro-5,11-dihydro-[1]benzothiepino[4,3-b]pyridin-11-yl)-N-cyano-1-piperazinecarboximidothioate], for which the IC50 (usually the concentration that gives 50% inhibition) was 300 nM.
In the case of `NC(=O)N1CCC(CC(=O)N2CCC(=C3c4ccc(Cl)cc4SCc4cccnc43)CC2)CC1` [Example 15B, 4-[2-[4-(8-Chloro-5,11-dihydro-[1]benzothiepino[4,3-b]pyridin-11-ylidene)-1-piperidinyl]-2-oxoethyl]-1-piperidinecarboxamide], the IC50 was 920 nM.
In the case of `O=C(Cc1cc[n+]([O-])cc1)N1CCN(C2c3ccc(Cl)cc3OCc3cccnc32)CC1` (stereo not shown) [Example 1, 4-(8-Chloro-5,11-dihydro[1]benzoxepino[4.3-b]pyridin-11-yl)-1-(4-pyridine-acetyl)-piperazine N1-oxide] it was 1280 nM; in that of `N#CN=C(NCc1ccc[n+]([O-])c1)N1CCN(C2c3ccc(Cl)cc3SCc3cccnc32)CC1` (stereo not shown) [Example 21, 4-(8-Chloro-5,11-dihydro[1]benzothiepino[4,3-b]pyridin-11-yl)-N-cyano-N'-(3-pyridinylmethyl)-1-piperazine-carboximidamide N1-oxide], 140 nM.
Under `O=C(CC1CCNCC1)N1CCN(C2c3ccc(Cl)cc3SCc3cccnc32)CC1` (stereo not shown) [Example 12A, 4-(8-Chloro-5,11-dihydro-[1]benzothiepino[4,3-b]pyridin-11-yl)-1-(4-piperidinyl-acetyl)piperazine] stands 1100 nM; under `O=C(Cc1cc[n+]([O-])cc1)N1CCN(C2c3ccc(Cl)cc3[S+]([O-])Cc3cccnc32)CC1` (stereo not shown) [Example 17A (sulfoxide), 4-(8-Chloro-5,11-dihydro-[1]benzothiepino[4,3-b]pyridin-11-yl)-1-(4-pyridine-acetyl)piperazine N1,6,-dioxide], > 4000 nM; under `O=C(Cc1ccncc1)N1CCC(=C2c3ccc(Cl)cc3OCc3cccnc32)CC1` [Example 5, 4-(8-Chloro-5,11-dihydro[1]benz-oxepino[4,3-b]pyridin-11-ylidene)-1-(4-pyridine-acetyl)piperidine], 760 nM.
Under `N#CNC(=NCc1ccncc1)N1CCC(=C2c3ccc(Cl)cc3OCc3cccnc32)CC1` [Example 3, 4-(8-Chloro-5,11-dihydro[1]benzoxepino[4,3-b]pyridin-11-ylidene)-N-cyano-N'-(4-pyridinylmethyl)-1-piperidine-carboximidamide] stands > 42 nM; under `O=C(Cc1ccncc1)N1CCN(C2c3ccc(Cl)cc3SCc3cccnc32)CC1` (stereo not shown) [Example 8, 4-(8-Chloro-5,11-dihydro-[1]benzothiepino[4,3-b]pyridin-11-yl)-1-(4-pyridinyl-acetyl)piperazine], 320 nM.
For `CC1(C)c2cccnc2C(=C2CCN(C(=O)Cc3cc[n+]([O-])cc3)CC2)c2ccc(Cl)cc2S1(=O)=O` [Example 30, 4-(8-Chloro-5,11-dihydro-5,5-dimethyl-[1]benzothiepino[4,3-b]pyridin-11-ylidene)-1-(4-pyridine-acetyl)piperidine-6,6-dioxide N1-oxide], the IC50 was > 1100 nM.
Under `N#CN=C(NCc1ccc2c(c1)OCO2)N1CCN(C2c3ccc(Cl)cc3SCc3cccnc32)CC1` (stereo not shown) [Example 20A, N-[(1,3-Benzodioxol-5-yl)methyl]-4-(8-chloro-5,11-dihydro[1]benzothiepino[4,3-b]pyridin-11-yl)-N'-cyano-1-piperazine-carboximidamide] stands > 370 nM; under `CN1Cc2cccnc2C(N2CCN(C(=O)Cc3ccncc3)CC2)c2ccc(Cl)cc21` (stereo not shown) [Example 35, 4-(8-Chloro-6,11-dihydro-6-methyl-5H-pyrido[3,2-c][1]benzazepin-11-yl)-1-(4-pyridine-acetyl)piperazine], 840 nM; under `O=C(CC1CCNCC1)N1CCC(=C2c3ccc(Cl)cc3S(=O)(=O)Cc3cccnc32)CC1` [Example 28, 4-(8-Chloro-5,11-dihydro-[1]benzothiepino[4,3-b]pyridin-11-ylidene)-1-(4-piperidine-acetyl)piperidine-6,6-dioxide], > 1200 nM.
